One molecule from patent US20120251630A1, “REMISSION THERAPY OF CANCER WITH ISOFLAVONOIDS” (MARSHALL EDWARDS, INC., priority 2011, published 2012) can be followed below.

Format in all cases: cell-based, human
The subject of assay [1] is CD44+/MYD88+ epithelial ovarian cancer (EOC) stem cells. The assay can be described thus: Flow cytometry with MitoSox dye, mitochondrial superoxide. As to conditions: 10 μg/mL, designated times. The method, then: FIG. 1. EOC stem cells were treated with 10 μg/ml compound 1 at designated times. Flow cytometry analysis (FIG. 1) illustrates the increased levels of mitochondrial superoxide using MitoSox dye.
(§1) A panel of CD44+/MYD88+ epithelial ovarian cancer (EOC) stem cells was treated with compound 1 (10 μg/mL) at designated times. CD44+/MYD88+ ovarian cancer stem cells are isolated from either tumor tissue or ascites obtained from patients diagnosed with stage III/IV serous ovarian carcinoma. Mitochondrial function was assessed using the JC1 dye (Biovision Inc), MitoSox dye (Invitrogen), and ApoSENSOR ADP/ATP kit (Biovision Inc.). Protein levels were determined using Western blot analysis. […] The impact of compound 1 on energy production was examined by measuring ADP and ATP levels. […] The stem cells were treated with increasing with compound 1 (10 μg/mL) at times points shown.

For assay [2], the system named is EOC stem cells. The assay can be described thus: Western blot analysis of protein levels (Cox-IV, pS6 kinase, ERK, AMPKα1). The protocol:
FIG. 3. Western blot analysis illustrates a decrease in Cox-IV and pS6 kinase, and activation of ERK and AMPKα1 (C).
FIG. 4. EOC stem cells were treated with compound 1 in the presence or absence of the ROS scavenger, MnTBAP. Western blot analysis (FIG. 2) illustrates the effect of MnTBAP pretreatment on mitochondrial ERK, pS6 and β-actin activation. […] Compound 1-induced ROS production leads to ERK activation and loss of mitochondrial membrane potential (MMP).
FIG. 8. Western blot analysis illustrates that treatment of ovarian cancer stem cells with compound 1 in the presence of FBS was able to prevent compound 1 induced decrease in pS6 kinase.
as §1
(§2) Inhibitory studies were done using the specific MEK inhibitor U0126 (10 μM) or the ROS scavenger, MnTBAP (500 μM). EOC stem cells were treated with compound 1 in the presence or absence of the ROS scavenger, MnTBAP (Alexis Biochemicals). […] (FIG. 4) EOC stem cells were treated with compound 1 in the presence or absence of the MEK inhibitor, U0126 (Sigma Aldrich). EOC stem cells were pre-treated with U0126 (10 μM) for 1 hour before treatment with compound 1. Flow cytometry analysis using JC1 green fluorescence illustrates the effect of compound 1 on mitochondrial membrane potential. Pretreatment with U0126 reduced the percentage of cells that lost mitochondrial membrane potential (59% vs 23% for compound 1 along and compound 1 with U0126, respectively) (FIG. 5). The mitochondrial fractions of cells treated with compound 1 in the presence or absence of U0126 were analyzed. […] (FIG. 6)
(§3) EOC stem cells were treated with compound 1 in the presence of 10% fetal bovine serum (FBS).

The subject of the next assay is ovarian cancer stem cell. The assay can be described thus: Mitochondrial function assessment (JC1 dye, MitoSox dye, ApoSENSOR ADP/ATP kit). As to conditions: overall conclusion of Example 1. The method, then: as §1
Assay [3] relates to CD44+/MYD88+ epithelial ovarian cancer (EOC) stem cells. The assay can be described thus: ApoSENSOR ADP/ATP ratio assay kit, ATP and ADP levels. The protocol: FIG. 2 illustrates the levels of ATP and ADP measured at designated times using Apo-SENSOR ADP/ATP ratio assay kit. […] (p<0.0001 compared to control)
FIG. 7. Compound 1-induced loss of ATP leads to mTor inhibition. EOC stem cells were treated with compound 1 in the presence of 10% FBS. FIG. 7 illustrates the levels of ATP and ADP measured at designated times using ApoS-SENSOR ADP/ATP ratio assay kit. # p<0.001 compared to compound 1 alone.
as §1, §3

Assay [4] relates to EOC stem cells. The assay can be described thus: Western blot analysis of mitochondrial fractions, Bax. The method, then:
FIG. 6. Western blot analysis using mitochondrial fractions illustrates the effect on mitochondrial Bax. U0126 inhibited compound 1-induced loss of mitochondrial membrane potential and mitochondrial translocation of Bax (member of the proapoptotic Bcl2 family).
as §2

Assay [5] relates to EOC stem cells. The assay can be described thus: Flow cytometry with JC1 dye, mitochondrial membrane potential. The protocol: FIG. 5. EOC stem cells were treated with compound 1 in the presence or absence of the MEK inhibitor, U0126. Flow cytometry analysis using JC1 dye illustrates the effect on mitochondrial membrane potential (MMP). FIG. 5 illustrates that inhibition of ERK with U0126 is able to reverse the effect of compound 1 on MMP.
as §1
Inhibitory studies were done using the specific MEK inhibitor U0126 (10 μM) or the ROS scavenger, MnTBAP (500 μM). […] Flow cytometry analysis using JC1 green fluorescence illustrates the effect of compound 1 on mitochondrial membrane potential. […] The mitochondrial fractions of cells treated with compound 1 in the presence or absence of U0126 were analyzed. […]

The mark [6] stands for this setting: in the presence of 10% fetal bovine serum (FBS).

Consider `COc1ccc(C2c3ccc(O)c(C)c3OCC2c2ccc(O)cc2)cc1` (stereo not drawn) [compound 1, 3-(4-hydroxyphenyl)-4-(4-methoxyphenyl)-8-methylchroman-7-ol], for which the “mitochondrial superoxide (MitoSox fluorescence)” value in assay [1] is “increase in mitochondrial superoxide”. Moreover, in the assay with EOC stem cells [2] (10 μg/mL), the “Cox-IV protein level (Western blot)” value is recorded as “decreases activation”, the “activation of AMPKα1 (Western blot)” value is “increases activation”, the “activation of ERK (Western blot)” value was “increases activation” and the “activation of pS6 kinase (Western blot)” value is “decreases activation”. Besides, the “compound 1-induced decrease in pS6k” value in the assay on EOC stem cells [2] (setting [6]) was “prevented compound 1-induced decrease in pS6k”. Moreover, the “compound 1-induced activation of mitochondrial ERK” value in the assay on EOC stem cells [2] (in the presence of ROS scavenger MnTBAP (500 μM)) is “MnTBAP inhibited compound 1-induced activation of mitochondrial ERK”. In addition, the mitochondrial function entry in the assay with ovarian cancer stem cell was “significantly inhibits mitochondrial function”. Besides, in assay [3] (10 μg/mL, after 2 and 4 hours of treatment), the ADP level entry is given as “accumulated ADP”. Further, the ATP production result in assay [3] (10 μg/mL, after 2 and 4 hours of treatment, p<0.0001 compared to control) is on record as “decrease in ATP production”. Also, the ATP loss result in assay [3] (setting [6]) is listed as “Abrogation of ATP loss”. For the same molecule, the “mitochondrial Bax (proapoptotic Bcl2 family member)” value with EOC stem cells [4] (compound 1 alone, mitochondrial fractions) is given as “upregulates”. In addition, the “compound 1-induced upregulation of mitochondrial Bax” value in the assay on EOC stem cells [4] (pre-treatment with U0126 followed by compound 1) is given as “prevented compound 1-induced upregulation”. Besides, the “percentage of cells that lost mitochondrial membrane potential” value with EOC stem cells [5] (compound 1 alone) turned out to be 59%. Further, the “percentage of cells that lost mitochondrial membrane potential” value in the assay with EOC stem cells [5] (pre-treated with MEK inhibitor U0126 (10 μM) for 1 hour before compound 1) was 23%.
